Experimental findings from PubChem BioAssay AID2060508 (Molecular Pharmacology Branch, DTP, NCI, 2025) are described below.
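Further: spheroids exposed to compounds for seven days.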
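Wherever viability, T/C is given: 100% = DMSO vehicle control viability.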

For one experiment, the system named is 454973-116-R2-J3-PDC spheroids, viability, % test/control. Kind of experiment: Anticancer human tumor 454973-116-R2-J3-PDC patient-derived pancreatic carcinoma cell line growth inhibition [GQUAD]. The note with it: curve of first compound; second compound 0.0316 µM; spheroids with HUVEC and MSC. The procedure, abridged: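 Viability of tumor cells grown as complex spheroids with endothelial and stromal cells, exposed to drug combinations. Top concentration at or near clinical Cmax (else 10 microM), diluted in half-log increments.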
In general, IC50 refers to the concentration that gives 50% inhibition. For `C=CC(=O)N1CCN(c2nc(=O)n(-c3c(C)ccnc3C(C)C)c3nc(-c4c(O)cccc4F)c(F)cc23)C(C)C1` (configuration not stated) + Cc1cnc(CNC(=O)c2c(=O)c3ccc(N4CCCN(C)CC4)nc3n3c2sc2ccccc23)cn1, the concentration for half-maximal inhibition (IC50) was > 10 µM.

As to `CC(C)n1c(=O)n(C)c2cnc3cc(F)c(-c4ccc(OCCCN5CCCCC5)nc4)cc3c21` + Cc1cnc(CNC(=O)c2c(=O)c3ccc(N4CCCN(C)CC4)nc3n3c2sc2ccccc23)cn1, the IC50 was > 10 µM.

Consider `Cc1cccc(N(C)C(=O)C2C(O)CCN2c2nc(C)cc(C(F)(F)F)c2C#N)c1` (configuration not stated) + Cc1cnc(CNC(=O)c2c(=O)c3ccc(N4CCCN(C)CC4)nc3n3c2sc2ccccc23)cn1, for which the IC50 was > 10 µM.

With `O=C(c1cc(Cc2n[nH]c(=O)c3ccccc23)ccc1F)N1CCN(C(=O)C2CC2)CC1` + Cc1cnc(CNC(=O)c2c(=O)c3ccc(N4CCCN(C)CC4)nc3n3c2sc2ccccc23)cn1, the IC50 was determined as 9.01 µM.

Staying with this experiment, now noted: curve of first compound; second compound 0.1 µM; spheroids with HUVEC and MSC.
For the compound `C=CC(=O)N1CCN(c2nc(=O)n(-c3c(C)ccnc3C(C)C)c3nc(-c4c(O)cccc4F)c(F)cc23)C(C)C1` (configuration not stated) + Cc1cnc(CNC(=O)c2c(=O)c3ccc(N4CCCN(C)CC4)nc3n3c2sc2ccccc23)cn1, the IC50 was > 10 µM.

`CC(C)n1c(=O)n(C)c2cnc3cc(F)c(-c4ccc(OCCCN5CCCCC5)nc4)cc3c21` + Cc1cnc(CNC(=O)c2c(=O)c3ccc(N4CCCN(C)CC4)nc3n3c2sc2ccccc23)cn1: the IC50 was < 0.0316 µM.

Take `Cc1cccc(N(C)C(=O)C2C(O)CCN2c2nc(C)cc(C(F)(F)F)c2C#N)c1` (configuration not stated) + Cc1cnc(CNC(=O)c2c(=O)c3ccc(N4CCCN(C)CC4)nc3n3c2sc2ccccc23)cn1: the half-maximal inhibitory concentration (IC50) is > 10 µM.

Take `O=C(c1cc(Cc2n[nH]c(=O)c3ccccc23)ccc1F)N1CCN(C(=O)C2CC2)CC1` + Cc1cnc(CNC(=O)c2c(=O)c3ccc(N4CCCN(C)CC4)nc3n3c2sc2ccccc23)cn1: the IC50 is 7.58 µM.

The experiment is the same for the next values; noted with them: curve of first compound; second compound 0.316 µM; spheroids with HUVEC and MSC.
On to `C=CC(=O)N1CCN(c2nc(=O)n(-c3c(C)ccnc3C(C)C)c3nc(-c4c(O)cccc4F)c(F)cc23)C(C)C1` (configuration not stated) + Cc1cnc(CNC(=O)c2c(=O)c3ccc(N4CCCN(C)CC4)nc3n3c2sc2ccccc23)cn1, for which the IC50 was > 10 µM.

`CC(C)n1c(=O)n(C)c2cnc3cc(F)c(-c4ccc(OCCCN5CCCCC5)nc4)cc3c21` + Cc1cnc(CNC(=O)c2c(=O)c3ccc(N4CCCN(C)CC4)nc3n3c2sc2ccccc23)cn1: the half-maximal inhibitory concentration (IC50) is < 0.0316 µM.

For the compound `Cc1cccc(N(C)C(=O)C2C(O)CCN2c2nc(C)cc(C(F)(F)F)c2C#N)c1` (configuration not stated) + Cc1cnc(CNC(=O)c2c(=O)c3ccc(N4CCCN(C)CC4)nc3n3c2sc2ccccc23)cn1, the concentration for half-maximal inhibition (IC50) was > 10 µM.

`O=C(c1cc(Cc2n[nH]c(=O)c3ccccc23)ccc1F)N1CCN(C(=O)C2CC2)CC1` + Cc1cnc(CNC(=O)c2c(=O)c3ccc(N4CCCN(C)CC4)nc3n3c2sc2ccccc23)cn1: the IC50 is 6.21 µM.

The experiment is the same for the next values; noted with them: curve of first compound; second compound 1 µM; spheroids with HUVEC and MSC.
In the case of `C=CC(=O)N1CCN(c2nc(=O)n(-c3c(C)ccnc3C(C)C)c3nc(-c4c(O)cccc4F)c(F)cc23)C(C)C1` (configuration not stated) + Cc1cnc(CNC(=O)c2c(=O)c3ccc(N4CCCN(C)CC4)nc3n3c2sc2ccccc23)cn1, the IC50 was > 10 µM.

On to `CC(C)n1c(=O)n(C)c2cnc3cc(F)c(-c4ccc(OCCCN5CCCCC5)nc4)cc3c21` + Cc1cnc(CNC(=O)c2c(=O)c3ccc(N4CCCN(C)CC4)nc3n3c2sc2ccccc23)cn1, for which the 50% inhibitory concentration (IC50) worked out at 0.0397 µM.

Consider `Cc1cccc(N(C)C(=O)C2C(O)CCN2c2nc(C)cc(C(F)(F)F)c2C#N)c1` (configuration not stated) + Cc1cnc(CNC(=O)c2c(=O)c3ccc(N4CCCN(C)CC4)nc3n3c2sc2ccccc23)cn1, for which the concentration for half-maximal inhibition (IC50) was > 10 µM.

As to `O=C(c1cc(Cc2n[nH]c(=O)c3ccccc23)ccc1F)N1CCN(C(=O)C2CC2)CC1` + Cc1cnc(CNC(=O)c2c(=O)c3ccc(N4CCCN(C)CC4)nc3n3c2sc2ccccc23)cn1, the IC50 was > 10 µM.

Staying with this experiment, now noted: curve of first compound; second compound 3.16 µM; spheroids with HUVEC and MSC.
On to `C=CC(=O)N1CCN(c2nc(=O)n(-c3c(C)ccnc3C(C)C)c3nc(-c4c(O)cccc4F)c(F)cc23)C(C)C1` (configuration not stated) + Cc1cnc(CNC(=O)c2c(=O)c3ccc(N4CCCN(C)CC4)nc3n3c2sc2ccccc23)cn1, for which the IC50 is > 10 µM.

For `CC(C)n1c(=O)n(C)c2cnc3cc(F)c(-c4ccc(OCCCN5CCCCC5)nc4)cc3c21` + Cc1cnc(CNC(=O)c2c(=O)c3ccc(N4CCCN(C)CC4)nc3n3c2sc2ccccc23)cn1, the concentration for half-maximal inhibition (IC50) was > 10 µM.

As to `Cc1cccc(N(C)C(=O)C2C(O)CCN2c2nc(C)cc(C(F)(F)F)c2C#N)c1` (configuration not stated) + Cc1cnc(CNC(=O)c2c(=O)c3ccc(N4CCCN(C)CC4)nc3n3c2sc2ccccc23)cn1, the half-inhibitory concentration (IC50) was > 10 µM.

Take `O=C(c1cc(Cc2n[nH]c(=O)c3ccccc23)ccc1F)N1CCN(C(=O)C2CC2)CC1` + Cc1cnc(CNC(=O)c2c(=O)c3ccc(N4CCCN(C)CC4)nc3n3c2sc2ccccc23)cn1: the IC50 is > 10 µM.

Still in this experiment, the particulars now being: curve of first compound; second compound 10 µM; spheroids with HUVEC and MSC.
Take `C=CC(=O)N1CCN(c2nc(=O)n(-c3c(C)ccnc3C(C)C)c3nc(-c4c(O)cccc4F)c(F)cc23)C(C)C1` (configuration not stated) + Cc1cnc(CNC(=O)c2c(=O)c3ccc(N4CCCN(C)CC4)nc3n3c2sc2ccccc23)cn1: the IC50 is < 0.0316 µM.

Turning to `CC(C)n1c(=O)n(C)c2cnc3cc(F)c(-c4ccc(OCCCN5CCCCC5)nc4)cc3c21` + Cc1cnc(CNC(=O)c2c(=O)c3ccc(N4CCCN(C)CC4)nc3n3c2sc2ccccc23)cn1, the IC50 is < 0.0316 µM.

For `Cc1cccc(N(C)C(=O)C2C(O)CCN2c2nc(C)cc(C(F)(F)F)c2C#N)c1` (configuration not stated) + Cc1cnc(CNC(=O)c2c(=O)c3ccc(N4CCCN(C)CC4)nc3n3c2sc2ccccc23)cn1, the IC50 was < 0.0316 µM.

Take `O=C(c1cc(Cc2n[nH]c(=O)c3ccccc23)ccc1F)N1CCN(C(=O)C2CC2)CC1` + Cc1cnc(CNC(=O)c2c(=O)c3ccc(N4CCCN(C)CC4)nc3n3c2sc2ccccc23)cn1: the IC50 is < 0.0316 µM.

Still in this experiment, the particulars now being: second compound 0.0316 µM; first compound 0.0316 µM; stronger effect = lower value; spheroids with HUVEC and MSC.
What is called viability, T/C is the ratio of treated to control. Consider `C=CC(=O)N1CCN(c2nc(=O)n(-c3c(C)ccnc3C(C)C)c3nc(-c4c(O)cccc4F)c(F)cc23)C(C)C1` (configuration not stated) + Cc1cnc(CNC(=O)c2c(=O)c3ccc(N4CCCN(C)CC4)nc3n3c2sc2ccccc23)cn1, for which the viability, T/C was 100%.

Consider `CC(C)n1c(=O)n(C)c2cnc3cc(F)c(-c4ccc(OCCCN5CCCCC5)nc4)cc3c21` + Cc1cnc(CNC(=O)c2c(=O)c3ccc(N4CCCN(C)CC4)nc3n3c2sc2ccccc23)cn1, for which the viability, T/C was 76.6%.

On to `Cc1cccc(N(C)C(=O)C2C(O)CCN2c2nc(C)cc(C(F)(F)F)c2C#N)c1` (configuration not stated) + Cc1cnc(CNC(=O)c2c(=O)c3ccc(N4CCCN(C)CC4)nc3n3c2sc2ccccc23)cn1, for which the viability, T/C is 103%.

Regarding `O=C(c1cc(Cc2n[nH]c(=O)c3ccccc23)ccc1F)N1CCN(C(=O)C2CC2)CC1` + Cc1cnc(CNC(=O)c2c(=O)c3ccc(N4CCCN(C)CC4)nc3n3c2sc2ccccc23)cn1, the viability, T/C was 103%.

Staying with this experiment, now noted: second compound 0.0316 µM; first compound 0.1 µM; stronger effect = lower value; spheroids with HUVEC and MSC.
Turning to `C=CC(=O)N1CCN(c2nc(=O)n(-c3c(C)ccnc3C(C)C)c3nc(-c4c(O)cccc4F)c(F)cc23)C(C)C1` (configuration not stated) + Cc1cnc(CNC(=O)c2c(=O)c3ccc(N4CCCN(C)CC4)nc3n3c2sc2ccccc23)cn1, the viability, T/C was 94.2%.

`CC(C)n1c(=O)n(C)c2cnc3cc(F)c(-c4ccc(OCCCN5CCCCC5)nc4)cc3c21` + Cc1cnc(CNC(=O)c2c(=O)c3ccc(N4CCCN(C)CC4)nc3n3c2sc2ccccc23)cn1: the viability, T/C was 53.5%.

`Cc1cccc(N(C)C(=O)C2C(O)CCN2c2nc(C)cc(C(F)(F)F)c2C#N)c1` (configuration not stated) + Cc1cnc(CNC(=O)c2c(=O)c3ccc(N4CCCN(C)CC4)nc3n3c2sc2ccccc23)cn1: the viability, T/C was 96.8%.

Consider `O=C(c1cc(Cc2n[nH]c(=O)c3ccccc23)ccc1F)N1CCN(C(=O)C2CC2)CC1` + Cc1cnc(CNC(=O)c2c(=O)c3ccc(N4CCCN(C)CC4)nc3n3c2sc2ccccc23)cn1, for which the viability, T/C is 85.1%.

Still in this experiment, the particulars now being: second compound 0.0316 µM; first compound 0.316 µM; stronger effect = lower value; spheroids with HUVEC and MSC.
On to `C=CC(=O)N1CCN(c2nc(=O)n(-c3c(C)ccnc3C(C)C)c3nc(-c4c(O)cccc4F)c(F)cc23)C(C)C1` (configuration not stated) + Cc1cnc(CNC(=O)c2c(=O)c3ccc(N4CCCN(C)CC4)nc3n3c2sc2ccccc23)cn1, for which the viability, T/C was 105%.

For the compound `CC(C)n1c(=O)n(C)c2cnc3cc(F)c(-c4ccc(OCCCN5CCCCC5)nc4)cc3c21` + Cc1cnc(CNC(=O)c2c(=O)c3ccc(N4CCCN(C)CC4)nc3n3c2sc2ccccc23)cn1, the viability, T/C is 59.6%.

On to `Cc1cccc(N(C)C(=O)C2C(O)CCN2c2nc(C)cc(C(F)(F)F)c2C#N)c1` (configuration not stated) + Cc1cnc(CNC(=O)c2c(=O)c3ccc(N4CCCN(C)CC4)nc3n3c2sc2ccccc23)cn1, for which the viability, T/C was 107%.

Turning to `O=C(c1cc(Cc2n[nH]c(=O)c3ccccc23)ccc1F)N1CCN(C(=O)C2CC2)CC1` + Cc1cnc(CNC(=O)c2c(=O)c3ccc(N4CCCN(C)CC4)nc3n3c2sc2ccccc23)cn1, the viability, T/C was 90.5%.

Staying with this experiment, now noted: second compound 0.0316 µM; first compound 1 µM; stronger effect = lower value; spheroids with HUVEC and MSC.
Take `C=CC(=O)N1CCN(c2nc(=O)n(-c3c(C)ccnc3C(C)C)c3nc(-c4c(O)cccc4F)c(F)cc23)C(C)C1` (configuration not stated) + Cc1cnc(CNC(=O)c2c(=O)c3ccc(N4CCCN(C)CC4)nc3n3c2sc2ccccc23)cn1: the viability, T/C is 116%.

`CC(C)n1c(=O)n(C)c2cnc3cc(F)c(-c4ccc(OCCCN5CCCCC5)nc4)cc3c21` + Cc1cnc(CNC(=O)c2c(=O)c3ccc(N4CCCN(C)CC4)nc3n3c2sc2ccccc23)cn1: the viability, T/C is 52.9%.

Turning to `Cc1cccc(N(C)C(=O)C2C(O)CCN2c2nc(C)cc(C(F)(F)F)c2C#N)c1` (configuration not stated) + Cc1cnc(CNC(=O)c2c(=O)c3ccc(N4CCCN(C)CC4)nc3n3c2sc2ccccc23)cn1, the viability, T/C was 87.5%.

Turning to `O=C(c1cc(Cc2n[nH]c(=O)c3ccccc23)ccc1F)N1CCN(C(=O)C2CC2)CC1` + Cc1cnc(CNC(=O)c2c(=O)c3ccc(N4CCCN(C)CC4)nc3n3c2sc2ccccc23)cn1, the viability, T/C is 82.8%.

Staying with this experiment, now noted: second compound 0.0316 µM; first compound 3.16 µM; stronger effect = lower value; spheroids with HUVEC and MSC.
Regarding `C=CC(=O)N1CCN(c2nc(=O)n(-c3c(C)ccnc3C(C)C)c3nc(-c4c(O)cccc4F)c(F)cc23)C(C)C1` (configuration not stated) + Cc1cnc(CNC(=O)c2c(=O)c3ccc(N4CCCN(C)CC4)nc3n3c2sc2ccccc23)cn1, the viability, T/C is 118%.

With `CC(C)n1c(=O)n(C)c2cnc3cc(F)c(-c4ccc(OCCCN5CCCCC5)nc4)cc3c21` + Cc1cnc(CNC(=O)c2c(=O)c3ccc(N4CCCN(C)CC4)nc3n3c2sc2ccccc23)cn1, the viability, T/C was 56.8%.
